We go through two compounds from patent publication US10059945B2, “Methods of controlling cell fate and consequences for disease” (THE GENERAL HOSPITAL CORPORATION, priority 2014, dated 2018).

This assay deals with reprogrammable MEFs. Put plainly: alkaline phosphatase-positive (AP+) transgene-independent iPSC colony formation. The assay is classed as cell-based, mouse. The note with it: 4-factor reprogrammable cells, doxycycline. The method, then: Transfections of RepMEFs with siRNAs were performed in 12-well plates at the time of dox administration. Per 12-well plate, 2 ul of Lipofectamine™ 2000 was added to 75 ul of Optimem™ (Life Technologies™) and 1.5 ul of siRNA (esiRNA, Sigma™) was added to 75 ul of Optimem™; both mixtures were separately incubated at room temperature for 5 minutes, then combined and incubated for another 15 minutes before adding the solution to the reprogramming media (normal media lacking antibiotics). After overnight incubation, the transfection media was replaced with regular reprogramming media.

`Cc1c[nH]c(-c2cnc(NCCNc3ccc(C#N)cn3)nc2-c2ccc(Cl)cc2Cl)n1` [Gsk3 inhibitor, CHIR99021]: the “generation of AP+ iPSC colonies, small molecules vs knockdown alone” value is “significantly enhanced”.

For the compound `O=C1O[C@H]([C@@H](O)CO)C(O)=C1O` [ascorbic acid, L-Ascorbic acid], the “generation of AP+ iPSC colonies, small molecules vs knockdown alone” value is listed as “significantly enhanced”.
